# Experimental data taken from PubChem BioAssay (NCI).
#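 Cells were grown in 96-well plates and exposed to each compound for 48 hours at five concentrations; endpoints were interpolated linearly between bracketing concentrations, or set to the highest concentration if not reached. Definition used: TGI = concentration required for complete inhibition of growth.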
# How the values were obtained:
# Experiment in all cases: NCI tumour cell line growth inhibition, 48 h
# BT-549 breast = test system: BT-549 breast
# COLO 205 colon = test system: COLO 205 colon
# HCC-2998 colon = test system: HCC-2998 colon
# HCT-116 colon = test system: HCT-116 colon
# HCT-15 colon = test system: HCT-15 colon
# IGROV1 ovarian = test system: IGROV1 ovarian
# K-562 leukemia = test system: K-562 leukemia
# LOX IMVI melanoma = test system: LOX IMVI melanoma
# MDA-MB-435 = test system: MDA-MB-435
# MOLT-4 leukemia = test system: MOLT-4 leukemia
# NCI-H23 lung = test system: NCI-H23 lung
# OVCAR-8 ovarian = test system: OVCAR-8 ovarian
# RPMI-8226 leukemia = test system: RPMI-8226 leukemia
# SW-620 colon = test system: SW-620 colon
# TK-10 renal = test system: TK-10 renal
# UACC-257 melanoma = test system: UACC-257 melanoma
# UACC-62 melanoma = test system: UACC-62 melanoma
# UO-31 renal = test system: UO-31 renal
Compound,TGI (BT-549 breast),TGI (COLO 205 colon),TGI (HCC-2998 colon),TGI (HCT-116 colon),TGI (HCT-15 colon),TGI (IGROV1 ovarian),TGI (K-562 leukemia),TGI (LOX IMVI melanoma),TGI (MDA-MB-435),TGI (MOLT-4 leukemia),TGI (NCI-H23 lung),TGI (OVCAR-8 ovarian),TGI (RPMI-8226 leukemia),TGI (SW-620 colon),TGI (TK-10 renal),TGI (UACC-257 melanoma),TGI (UACC-62 melanoma),TGI (UO-31 renal)
c1ccc(N=C(N2CCOCC2)N(CCN2CCOCC2)c2ccccc2)cc1,> 100 µM,> 100 µM,> 100 µM,> 100 µM,> 100 µM,> 100 µM,> 100 µM,> 100 µM,> 100 µM,> 100 µM,> 100 µM,> 100 µM,> 100 µM,> 100 µM,> 100 µM,> 100 µM,> 100 µM,> 100 µM
COc1ccc(C2=Nn3c(nc4sc(C)c(C)c4c3=O)SC2)cc1,> 100 µM,> 100 µM,> 100 µM,> 100 µM,> 100 µM,> 100 µM,> 100 µM,> 100 µM,> 100 µM,> 100 µM,> 100 µM,> 100 µM,> 100 µM,> 100 µM,> 100 µM,> 100 µM,> 100 µM,> 100 µM
CC(=O)OCc1ccc2oc(=O)c(C(=O)Oc3cccc(Cl)c3)cc2c1,> 100 µM,94.4 µM,39.3 µM,54.5 µM,> 100 µM,> 100 µM,79.8 µM,> 100 µM,> 100 µM,> 100 µM,> 100 µM,> 100 µM,> 100 µM,> 100 µM,91.6 µM,> 100 µM,34.2 µM,55.4 µM
O=Nc1c(-c2c(O)[nH]c3ccccc23)[nH]c2ccccc12,30 µM,34.8 µM,16.3 µM,> 29.6 µM,> 87.5 µM,22 µM,> 100 µM,41.4 µM,> 39.7 µM,> 100 µM,> 44.6 µM,> 45.5 µM,9.95 µM,> 100 µM,55.2 µM,> 72.3 µM,11.1 µM,13.4 µM
COc1cccc(C(=O)Nc2c3ccccc3nc3ccccc23)c1OC,> 100 µM,> 100 µM,> 100 µM,> 100 µM,> 100 µM,> 100 µM,> 100 µM,> 100 µM,> 100 µM,> 100 µM,> 100 µM,> 100 µM,> 100 µM,> 100 µM,> 100 µM,> 100 µM,> 100 µM,14.7 µM
O=C1OC2C(O)COC2(O)C1(O)C(C[N+](=O)[O-])c1ccc(Cl)cc1 (stereo unspecified),13.1 µM,12.8 µM,13.4 µM,3.34 µM,16.7 µM,21.9 µM,22.4 µM,7.35 µM,4.59 µM,10.9 µM,18.6 µM,51.1 µM,4.67 µM,14.1 µM,25.9 µM,17.4 µM,22.8 µM,22.7 µM
O=C(NCCc1ccccc1)[C@H]1CCCC[C@@H]1CCO,> 100 µM,> 100 µM,> 100 µM,> 100 µM,> 100 µM,> 100 µM,> 100 µM,> 100 µM,> 100 µM,> 100 µM,> 100 µM,> 100 µM,> 100 µM,> 100 µM,> 100 µM,> 100 µM,> 100 µM,> 100 µM
CCOC(=O)N1CC2(C)C=CC1C(C(=O)OC)C2 (stereo unspecified),> 100 µM,> 100 µM,> 100 µM,> 100 µM,> 100 µM,> 100 µM,> 100 µM,> 100 µM,> 100 µM,> 100 µM,> 100 µM,> 100 µM,> 100 µM,> 100 µM,> 100 µM,> 100 µM,> 100 µM,> 100 µM
CC1=CC=C2c3ccccc3C=CN2C(=O)C1,56.3 µM,> 100 µM,> 100 µM,> 100 µM,> 100 µM,> 100 µM,> 100 µM,> 100 µM,> 100 µM,> 100 µM,> 100 µM,> 100 µM,> 100 µM,> 100 µM,84.9 µM,> 100 µM,> 100 µM,> 100 µM
CCc1n[nH]c(=O)n1N1C(=O)CCC1=O,> 100 µM,> 100 µM,> 100 µM,> 100 µM,> 100 µM,> 100 µM,> 100 µM,> 100 µM,> 100 µM,> 100 µM,,> 100 µM,> 100 µM,> 100 µM,> 100 µM,> 100 µM,> 100 µM,> 100 µM
C=C1[C@H](OC(=O)C(C)C)[C@@H](OC(C)=O)[C@@H](OC(C)=O)C(C)(C)[C@@H]2O[C@H]2[C@@H](C)C(=O)[C@@]2(OC(C)=O)C[C@@](C)(OC(C)=O)[C@H](OC(C)=O)[C@@H]2[C@H]1OC(C)=O,> 100 µM,> 100 µM,> 100 µM,> 100 µM,> 100 µM,> 100 µM,> 100 µM,> 100 µM,> 100 µM,> 100 µM,> 100 µM,> 100 µM,> 100 µM,> 100 µM,> 100 µM,> 100 µM,> 100 µM,> 100 µM
O=C(NO)c1ccc(OCc2cccc(Cl)c2)cc1,48 µM,51.7 µM,24.4 µM,14.4 µM,29.9 µM,23.3 µM,> 31.6 µM,> 56.6 µM,44 µM,> 45.9 µM,20.9 µM,33.3 µM,> 58.9 µM,> 100 µM,32.3 µM,46.8 µM,21.7 µM,35.6 µM
O=c1[nH]c(=O)n(C2OC(CO)C(O)C2O)c2ncc(-c3ccc(-c4ccccc4)cc3)nc12 (stereo unspecified),> 20 µM,> 20 µM,> 20 µM,> 20 µM,> 20 µM,> 20 µM,> 20 µM,> 20 µM,> 20 µM,> 20 µM,> 20 µM,> 20 µM,> 20 µM,> 20 µM,> 20 µM,> 20 µM,> 20 µM,> 20 µM
CCOC(=O)CC(=O)C(=O)NNC1=NCCN1,> 100 µM,> 100 µM,> 100 µM,> 100 µM,> 100 µM,> 100 µM,> 100 µM,> 100 µM,> 100 µM,> 100 µM,> 100 µM,> 100 µM,> 100 µM,> 100 µM,> 100 µM,> 100 µM,> 100 µM,> 100 µM
c1ccc(CSc2ccccc2CN2CCN(Cc3ccccc3SCc3ccccc3)CCN(Cc3ccccc3SCc3ccccc3)CC2)cc1,4.1 µM,2.21 µM,2.39 µM,2.03 µM,3.3 µM,,7.18 µM,2.75 µM,12 µM,6.26 µM,2.67 µM,2.67 µM,18 µM,69.2 µM,5.72 µM,2.94 µM,3.23 µM,7.66 µM
CCOC(=O)C(NC(=O)C(CCCCNP(=O)(OCC)OCC)NC(=O)C(C)NC(C)=O)C(C)C (stereo unspecified),> 100 µM,> 100 µM,> 100 µM,> 100 µM,> 100 µM,> 100 µM,> 100 µM,> 100 µM,> 100 µM,> 100 µM,> 100 µM,> 100 µM,> 100 µM,> 100 µM,> 100 µM,> 100 µM,,> 100 µM
CCOC(=O)/C(C=Nc1c(C)n(C)n(-c2ccccc2)c1=O)=C(/O)c1ccccc1,> 100 µM,> 100 µM,> 100 µM,> 100 µM,> 100 µM,> 100 µM,> 100 µM,> 100 µM,> 100 µM,> 100 µM,> 100 µM,,> 100 µM,> 100 µM,> 100 µM,> 100 µM,> 100 µM,> 100 µM
O=C(Nc1cccc(NC(=O)C(=O)C2CCC3=C(Sc4ccccc4N3)C2=O)n1)C(=O)C1CCC2=C(Sc3ccccc3N2)C1=O (stereo unspecified),> 100 µM,> 100 µM,> 100 µM,> 100 µM,> 100 µM,> 100 µM,> 100 µM,> 100 µM,> 100 µM,> 100 µM,> 100 µM,> 100 µM,> 100 µM,> 100 µM,,> 100 µM,> 100 µM,> 100 µM
CC(C)(C)OC(=O)[C@@H]1CCC(=S)N1Cc1ccccc1,> 100 µM,> 100 µM,> 100 µM,> 100 µM,> 100 µM,> 100 µM,> 100 µM,> 100 µM,> 100 µM,> 100 µM,> 100 µM,> 100 µM,> 100 µM,> 100 µM,> 100 µM,> 100 µM,> 100 µM,> 100 µM
CCN(CC)C(=S)SNc1ccc(S(N)(=O)=O)cc1,> 100 µM,> 100 µM,> 100 µM,> 100 µM,> 100 µM,> 100 µM,> 100 µM,> 100 µM,> 100 µM,> 100 µM,> 100 µM,66 µM,> 78.9 µM,19.3 µM,> 100 µM,> 100 µM,> 100 µM,> 100 µM
Cc1c(-c2ccccc2)[nH]c2ccc(Cl)cc2c1=O,> 100 µM,> 100 µM,> 100 µM,52 µM,> 100 µM,> 100 µM,> 100 µM,> 100 µM,57.3 µM,> 100 µM,> 100 µM,69.5 µM,> 100 µM,> 100 µM,> 100 µM,> 100 µM,> 100 µM,0.507 µM
C/C(=C/c1ccccc1)CN(C(=O)/C=C\Sc1ccccc1)C(C)(C)C,> 100 µM,> 100 µM,> 100 µM,> 100 µM,> 100 µM,> 100 µM,> 100 µM,> 100 µM,> 100 µM,> 100 µM,> 100 µM,> 100 µM,> 100 µM,> 100 µM,> 100 µM,> 100 µM,> 100 µM,> 100 µM
COc1ccc2oc(=Nc3ccccc3)c(C(N)=O)cc2c1,> 100 µM,> 100 µM,> 100 µM,> 100 µM,> 100 µM,> 100 µM,> 100 µM,> 100 µM,> 24.4 µM,> 100 µM,> 100 µM,> 100 µM,> 100 µM,> 100 µM,> 87.6 µM,> 100 µM,,> 55.6 µM
C=C(C)CNC(=S)N(N)c1ccc(OC)cc1,> 100 µM,> 100 µM,> 100 µM,> 100 µM,56.8 µM,> 100 µM,> 100 µM,> 100 µM,> 100 µM,> 100 µM,> 100 µM,> 100 µM,> 100 µM,> 100 µM,> 100 µM,> 100 µM,67.7 µM,> 100 µM
